Data from patent US11608313B2, “Adamantylmethylamine derivative and use thereof as pharmaceutical” (TOHOKU UNIVERSITY, priority 2017, dated 2023).

Experiments:
OBX mice = test: Tail-suspension test and forced swim test in OBX mice (depression model); type: in vivo; details: chronic oral treatment for 2 weeks, 1 mg/kg
Procedure: OBX mice were used as a depression model to determine the effect of TP-014 (chronic oral treatment for 2 weeks (1 mg/kg)) to ameliorate a depression-like symptom. OBX mice are reported to show a decline in cognitive function, but have originally been established as a depression model. Depression analysis was done by tail-suspension test and forced swim test. In the tail-suspension test, mice are hung upside-down by their tail. If the hung mice are affected by depression, they show a longer immobility time. The immobility time of normal mice is shorter since they move actively when hung. In the forced swim test, mice are forced to swim in a beaker filled with water. Depression mice neither swim nor move (just float). The time (immobility time(s)) for which mice stay still in such a way is measured.
The same model mice were orally treated with a single dose of each of the test compounds (1 mg/kg), and analyzed after 1 hour by tail-suspension test and forced swim test. The results are shown in FIGS. 22-1 (tail-suspension test) and 22-2 (forced swim test).

CaMKIV-deficient mice = test: Tail-suspension test and forced swim test in CaMKIV-deficient mice; type: in vivo; details: chronic oral treatment for 2 weeks, 1 mg/kg
Procedure: By following the same procedure as in Test Example 12, CaMKIV-deficient mice (n=5*per group) were analyzed for CaMKIV induced by Kir6.1 channels.
The CaMKIV-deficient mice were obtained from professor Hiroyuki Sakagami, Kitasato University School of Medicine (Takao K., et al., PLoS One 2010, 5, e9460).

APP23 mice = test: Y-maze test in APP23 mice; type: in vivo; details: 1 mg/kg orally once a day for two months
Procedure: FIGS. 4-1 to 4-4 show the results of behavioral analyses. FIGS. 4-1 and 4-2 show the results of analysis of attentional function in wild-type mice (C57BL/6J, Japan SLC) v.s. APP23 mice (n=5 per group) by conventional Y-maze test. […] In the Y-maze test, mice are allowed to freely walk between three arms for 8 minutes. Here, the different arms are designated as A, B and C. A mouse positioned in arm A can move to arm B or C. If the mouse moves to arm B, then the mouse may move to arm C. Such a mouse moving sequentially between arms A, B and C is regarded as a mouse giving correct answer. […] The arms to which a mouse move are recorded in the order they are chosen by the mouse, and the number of times that a mouse moves between three arms within a specified time is counted and regarded as “total arm entries”. Further, the number of correct-answers (the number of times that a mouse moving sequentially between three different arms) is counted and regarded as the number of alternation behaviors (“No. of alternations”). The percentage of “No. of alternations” relative to the number obtained by subtracting 2 from “total arm entries” is expressed as percent alternation (%) which serves as an index for normal alternation behavior (correct answer rate in spatial working memory). […]

Kir6.1 channels = target: T1, Kir6.1 channels (Mus musculus, UniProt P97794); test: Patch-clamp assay of outward potassium current in Kir6.1 channel-overexpressing cells; type: cell-based; details: 10 nM
T1 construct: The plasmid vector having inserted therein Kir6.1 channel cDNA: pcDNA3.1-Kir6.1; expressed in transfected cells; host or cells: Neuro2A (N2A) cells, mouse neuroblastoma
T1 sequence (P97794 1-424): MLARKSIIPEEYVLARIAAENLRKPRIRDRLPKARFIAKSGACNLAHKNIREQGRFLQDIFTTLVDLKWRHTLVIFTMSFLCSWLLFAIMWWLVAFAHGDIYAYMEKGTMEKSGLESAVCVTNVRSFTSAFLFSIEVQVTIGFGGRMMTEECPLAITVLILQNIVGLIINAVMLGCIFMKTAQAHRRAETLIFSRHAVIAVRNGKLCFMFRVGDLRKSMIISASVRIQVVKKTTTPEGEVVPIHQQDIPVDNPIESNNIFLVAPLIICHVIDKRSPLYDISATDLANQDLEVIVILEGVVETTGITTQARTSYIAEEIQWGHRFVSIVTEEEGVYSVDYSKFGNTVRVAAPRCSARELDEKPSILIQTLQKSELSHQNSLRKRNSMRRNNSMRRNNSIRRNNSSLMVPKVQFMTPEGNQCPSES
Excerpt: Further, the obtained Kir6.1 channel-overexpressing cells were used to measure potassium current discharged out of the cells by a conventional patch-clamp assay. ATP-sensitive potassium channels (Kir6.1 channels) are localized in the cell membranes of nerve cells. If the channels are inhibited and closed, the threshold of the nerve cell membranes rises to create a condition analogous to temporal generation of action potential, with the result that intracellular potassium current is discharged out of the cells and instead extracellular calcium current enters the cells. Immunoblotting of Kir6.1 channel-overexpressing cells (prepared by the aforementioned method) using an anti-Kir6.1 channel antibody (prepared by a conventional method) (n=5, under the same conditions as in Test Example 1, except for using the anti-Kir6.1 channel antibody) confirmed that Kir6.1 channels were overexpressed in N2A cells (FIG. 18-2; upper: immunoblot staining images; lower: quantitative representations of the signal intensity of staining bands).

CaMKII [1] = test: Protein phosphorylation in hippocampus of APP23 mice (immunoblotting); type: in vivo; details: APP23 mice chronically treated orally, 1 mg/kg, two months
Excerpt: Hippocampus samples were excised from APP23 mice, and hippocampal slices were suspended in an SDS sample buffer and analyzed for protein phosphorylation by immunoblotting using antibodies against CaMKII, CaMKIV and ERK (CaMKII: Fukunaga, et al., J. Biol. Chem. 1992, 267, 22527-22533; CaMKIV: Kasahara, et al., J. Biol. Chem. 2001, 276, 24044-24050; ERK: produced by Sigma-Aldrich). CaMKII, CaMKIV and ERK are all considered as molecules playing an important role in memory formation.

CaMKII [2] = test: CaMKII activation in hippocampus of Kir6.2-deficient mice (immunoblotting); type: in vivo; details: chronic treatment
Excerpt: By following the same procedure as in Test Examples 4 to 7, hippocampal slices were suspended in an SDS sample buffer and analyzed by immunoblotting for GluAl (Ser-831), which is known as a molecule that is activated by activation of CaMKII and CaMKIV, to thereby investigate the intracellular mechanism of cognitive function impairment in Kir6.2-deficient mice. The results are shown in FIGS. 9-1 and 9-2 (FIG. 9-1: band images obtained by immunoblotting; FIG. 9-2: results of quantification of the signal intensity of bands). In the hippocampus of the Kir6.2-deficient mice, increased CaMKII activation was seen and no effect was found of chronic treatment with TP-014.

- outwardly flowing potassium current (Kir6.1 channels): suppressed
SMILES: O=C(N[C@@H](c1ccccc1)[C@H]1[C@H]2C[C@@H]3C[C@](Cl)(C2)C[C@@]1(OC(=O)C(F)(F)F)C3)C(F)(F)F [TP-014, (1S,2R,3S,5S,7S)-5-chloro-2-((R)-phenyl(2,2,2-trifluoroacetamido)methyl)adamantan-1-yl 2,2,2-trifluoroacetate]
- immobility time (tail-suspension test and forced swim test) (OBX mice): improved
- depression-like symptom (increased immobility time) (CaMKIV-deficient mice): no effect
- attentional function (Y-maze test, percent alternation) (APP23 mice): significantly enhanced
- CaMKII phosphorylation in hippocampus (CaMKII [1]): increased CaMKII phosphorylation
- CaMKII activation in hippocampus (CaMKII [2]): no effect
